Experimental data taken from patent US6358885B1, “Substituted phenylheterocyclic herbicides” (Mississippi State University, priority 1992, dated 2002).

Legend:
Assay in all cases: Test B preemergence/postemergence greenhouse plant response rating 0 to 10
Settings in all cases: 0 to 10 scale
barley = format: in vivo, Hordeum vulgare
Outline: (§1)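 Planted seeds are treated preemergence with compound dissolved in a non-phytotoxic solvent, while postemergence applications go onto plants of two to eighteen cm. Plants stay in the greenhouse twelve to sixteen days and are then rated visually relative to controls.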

barnyardgrass = format: in vivo, Echinochloa crus-galli
Outline: as §1

bedstraw = format: in vivo, Galium aparine
Outline: as §1

blackgrass = format: in vivo, Alopecurus myosuroides
Outline: as §1

cheatgrass = format: in vivo, Bromus secalinus
Outline: as §1

chickweed = format: in vivo, Stellaria media
Outline: as §1

cocklebur = format: in vivo, Xanthium pensylvanicum
Outline: as §1

corn = format: in vivo, Zea mays
Outline: as §1

cotton = format: in vivo, Gossypium hirsutum
Outline: as §1

crabgrass = format: in vivo, Digitaria spp.
Outline: as §1

giant foxtail = format: in vivo, Setaria faberii
Outline: as §1

lambsquarters = format: in vivo, Chenopodium album
Outline: as §1

morningglory = format: in vivo, Ipomoea hederacea
Outline: as §1

rape = format: in vivo, Brassica napus
Outline: as §1

rice = format: in vivo, Oryza sativa
Outline: as §1

sorghum = format: in vivo, Sorghum bicolor
Outline: as §1

soybean = format: in vivo, Glycine max
Outline: as §1

sugar beet = format: in vivo, Beta vulgaris
Outline: as §1

velvetleaf = format: in vivo, Abutilon theophrasti
Outline: as §1

wheat = format: in vivo, Triticum aestivum
Outline: as §1

wild buckwheat = format: in vivo, Polygonum convolvulus
Outline: as §1

wild oat = format: in vivo, Avena fatua
Outline: as §1

purple nutsedge = format: in vivo, Cyperus rotundus
Outline: as §1

O=C1COc2cc(F)c(-c3nn4c(c3Cl)CCCC4)cc2N1 [Compound 51]
1: Plant response rating, Cotton (cotton; PREEMERGENCE, Rate 50 g/ha) | Plant response rating, Soybean (soybean; PREEMERGENCE, Rate 50 g/ha)
8: Plant response rating, Barnyardgrass (barnyardgrass; POSTEMERGENCE, Rate 50 g/ha) | Plant response rating, Giant foxtail (giant foxtail; Rate 200 g/ha, PREEMERGENCE) | Plant response rating, Rape (rape; PREEMERGENCE, Rate 50 g/ha) | Plant response rating, Soybean (soybean; POSTEMERGENCE, Rate 50 g/ha) | Plant response rating, Soybean (soybean; Rate 200 g/ha, PREEMERGENCE)
0: Plant response rating, Barley (barley; PREEMERGENCE, Rate 50 g/ha) | Plant response rating, Barley (barley; Rate 200 g/ha, PREEMERGENCE) | Plant response rating, Corn (corn; PREEMERGENCE, Rate 50 g/ha) | Plant response rating, Corn (corn; Rate 200 g/ha, PREEMERGENCE) | Plant response rating, Rice (rice; PREEMERGENCE, Rate 50 g/ha) | Plant response rating, Sorghum (sorghum; PREEMERGENCE, Rate 50 g/ha) | Plant response rating, Sorghum (sorghum; Rate 200 g/ha, PREEMERGENCE) | Plant response rating, Wheat (wheat; PREEMERGENCE, Rate 50 g/ha) | Plant response rating, Wild oat (wild oat; PREEMERGENCE, Rate 50 g/ha) | Plant response rating, Nutsedge (purple nutsedge; PREEMERGENCE, Rate 50 g/ha) | Plant response rating, Nutsedge (purple nutsedge; Rate 200 g/ha, PREEMERGENCE)
9: Plant response rating, Barnyardgrass (barnyardgrass; POSTEMERGENCE, Rate 200 g/ha) | Plant response rating, Barnyardgrass (barnyardgrass; PREEMERGENCE, Rate 50 g/ha) | Plant response rating, Barnyardgrass (barnyardgrass; Rate 200 g/ha, PREEMERGENCE) | Plant response rating, Cocklebur (cocklebur; POSTEMERGENCE, Rate 50 g/ha) | Plant response rating, Cocklebur (cocklebur; Rate 200 g/ha, PREEMERGENCE) | Plant response rating, Crabgrass (crabgrass; Rate 200 g/ha, PREEMERGENCE) | Plant response rating, Morningglory (morningglory; POSTEMERGENCE, Rate 50 g/ha) | Plant response rating, Morningglory (morningglory; PREEMERGENCE, Rate 50 g/ha) | Plant response rating, Soybean (soybean; Rate 200 g/ha, POSTEMERGENCE) | Plant response rating, Velvetleaf (velvetleaf; POSTEMERGENCE, Rate 50 g/ha)
3: Plant response rating, Barley (barley; POSTEMERGENCE, Rate 50 g/ha) | Plant response rating, Barley (barley; POSTEMERGENCE, Rate 200 g/ha) | Plant response rating, Cheatgrass (cheatgrass; PREEMERGENCE, Rate 50 g/ha) | Plant response rating, Rice (rice; POSTEMERGENCE, Rate 50 g/ha) | Plant response rating, Wheat (wheat; POSTEMERGENCE, Rate 50 g/ha) | Plant response rating, Wild oat (wild oat; Rate 200 g/ha, POSTEMERGENCE) | Plant response rating, Nutsedge (purple nutsedge; POSTEMERGENCE, Rate 50 g/ha) | Plant response rating, Nutsedge (purple nutsedge; Rate 200 g/ha, POSTEMERGENCE)
10: Plant response rating, Bedstraw (bedstraw; POSTEMERGENCE, Rate 50 g/ha) | Plant response rating, Bedstraw (bedstraw; POSTEMERGENCE, Rate 200 g/ha) | Plant response rating, Bedstraw (bedstraw; Rate 200 g/ha, PREEMERGENCE) | Plant response rating, Chickweed (chickweed; POSTEMERGENCE, Rate 50 g/ha) | Plant response rating, Chickweed (chickweed; POSTEMERGENCE, Rate 200 g/ha) | Plant response rating, Chickweed (chickweed; Rate 200 g/ha, PREEMERGENCE) | Plant response rating, Cocklebur (cocklebur; POSTEMERGENCE, Rate 200 g/ha) | Plant response rating, Cotton (cotton; POSTEMERGENCE, Rate 50 g/ha) | Plant response rating, Cotton (cotton; POSTEMERGENCE, Rate 200 g/ha) | Plant response rating, Lambsquarter (lambsquarters; POSTEMERGENCE, Rate 50 g/ha) | Plant response rating, Lambsquarter (lambsquarters; PREEMERGENCE, Rate 50 g/ha) | Plant response rating, Lambsquarter (lambsquarters; Rate 200 g/ha, POSTEMERGENCE) | Plant response rating, Lambsquarter (lambsquarters; Rate 200 g/ha, PREEMERGENCE) | Plant response rating, Morningglory (morningglory; Rate 200 g/ha, POSTEMERGENCE) | Plant response rating, Morningglory (morningglory; Rate 200 g/ha, PREEMERGENCE) | Plant response rating, Rape (rape; Rate 200 g/ha, POSTEMERGENCE) | Plant response rating, Rape (rape; Rate 200 g/ha, PREEMERGENCE) | Plant response rating, Sugar beet (sugar beet; POSTEMERGENCE, Rate 50 g/ha) | Plant response rating, Sugar beet (sugar beet; PREEMERGENCE, Rate 50 g/ha) | Plant response rating, Sugar beet (sugar beet; Rate 200 g/ha, POSTEMERGENCE) | Plant response rating, Sugar beet (sugar beet; Rate 200 g/ha, PREEMERGENCE) | Plant response rating, Velvetleaf (velvetleaf; PREEMERGENCE, Rate 50 g/ha) | Plant response rating, Velvetleaf (velvetleaf; Rate 200 g/ha, POSTEMERGENCE) | Plant response rating, Velvetleaf (velvetleaf; Rate 200 g/ha, PREEMERGENCE) | Plant response rating, Wild buckwheat (wild buckwheat; POSTEMERGENCE, Rate 50 g/ha) | Plant response rating, Wild buckwheat (wild buckwheat; PREEMERGENCE, Rate 50 g/ha) | Plant response rating, Wild buckwheat (wild buckwheat; Rate 200 g/ha, POSTEMERGENCE) | Plant response rating, Wild buckwheat (wild buckwheat; Rate 200 g/ha, PREEMERGENCE)
2: Plant response rating, Blackgrass (blackgrass; PREEMERGENCE, Rate 50 g/ha) | Plant response rating, Cocklebur (cocklebur; PREEMERGENCE, Rate 50 g/ha) | Plant response rating, Crabgrass (crabgrass; PREEMERGENCE, Rate 50 g/ha) | Plant response rating, Giant foxtail (giant foxtail; PREEMERGENCE, Rate 50 g/ha) | Plant response rating, Rice (rice; Rate 200 g/ha, PREEMERGENCE) | Plant response rating, Wheat (wheat; Rate 200 g/ha, PREEMERGENCE) | Plant response rating, Wild oat (wild oat; POSTEMERGENCE, Rate 50 g/ha)
6: Plant response rating, Blackgrass (blackgrass; POSTEMERGENCE, Rate 50 g/ha) | Plant response rating, Blackgrass (blackgrass; POSTEMERGENCE, Rate 200 g/ha) | Plant response rating, Blackgrass (blackgrass; Rate 200 g/ha, PREEMERGENCE) | Plant response rating, Chickweed (chickweed; PREEMERGENCE, Rate 50 g/ha) | Plant response rating, Corn (corn; POSTEMERGENCE, Rate 200 g/ha) | Plant response rating, Giant foxtail (giant foxtail; Rate 200 g/ha, POSTEMERGENCE) | Plant response rating, Sorghum (sorghum; Rate 200 g/ha, POSTEMERGENCE)
4: Plant response rating, Cheatgrass (cheatgrass; POSTEMERGENCE, Rate 50 g/ha) | Plant response rating, Cheatgrass (cheatgrass; POSTEMERGENCE, Rate 200 g/ha) | Plant response rating, Corn (corn; POSTEMERGENCE, Rate 50 g/ha) | Plant response rating, Crabgrass (crabgrass; POSTEMERGENCE, Rate 50 g/ha) | Plant response rating, Giant foxtail (giant foxtail; POSTEMERGENCE, Rate 50 g/ha) | Plant response rating, Sorghum (sorghum; POSTEMERGENCE, Rate 50 g/ha) | Plant response rating, Wheat (wheat; Rate 200 g/ha, POSTEMERGENCE)
7: Plant response rating, Rape (rape; POSTEMERGENCE, Rate 50 g/ha)
5: Plant response rating, Bedstraw (bedstraw; PREEMERGENCE, Rate 50 g/ha) | Plant response rating, Cheatgrass (cheatgrass; Rate 200 g/ha, PREEMERGENCE) | Plant response rating, Cotton (cotton; Rate 200 g/ha, PREEMERGENCE) | Plant response rating, Crabgrass (crabgrass; POSTEMERGENCE, Rate 200 g/ha) | Plant response rating, Rice (rice; Rate 200 g/ha, POSTEMERGENCE)
